How the values were obtained:
[1] = test system: Ba/F3 CCDC6-RET (WT) cells; assay: Cell proliferation inhibition, CellTiter-Glo; assay type: cell-based; conditions: BaF3/CCDC6-RET, 72 hours
Procedure: (§1) Among lung cancer cell lines, which express RET fusion genes, LC-2/ad cells were cultured after adding 10% FBS (HyClone) to RPMI:F12 (1:1) (Invitrogen), and F-12 (Invitrogen) supplemented with 10% FBS was used for TT cells. RPMI-1640 supplemented with 10% FBS and 5 ng/ml IL-3 (R&D Systems) was used for Ba/F3 cells. Transduced Ba/F3 cells were cultured by adding 1 ug/ml puromycin (Invitrogen) to the same medium. 24 hours before cells were treated with the compound, 3000 to 5000 cells were aliquoted into each well of a white clear bottom 96 well plate (Corning). The compound was diluted in DMSO (3-fold dilution, a total of 12 concentrations) and the compound was injected by 0.5 μl such that the final concentration was 0.3 nM to 50 μM. For the measurement of living cells, 72 hours after the compound treatment, the cells were stored at room temperature for 10 minutes using a CellTiter-Glo luminescent cell-viability agent (Promega), and then the luminescence intensity was measured using a reader (SynergyNeo, Biotek). Each experiment was repeated in triplicate. The result value was calculated by the cell growth ratio (%) compared to the control. A graph was drawn using the GraphPad Prism version 5.0 program, and a GI50 (nM) value was calculated.
(§2) In the cell assay column, LC-2/ad (with CCDC6-RET gene) is a lung cancer cell line, a TT cell line ([…]) is a thyroid cancer cell line, Ba/F3 CCDC6-RET (WT), Ba/F3 KIF5B-RET (WT), and Ba/F3 KIF5B-RET (V804M) are cells in which disease-related traits (CCDC6-RET, KIF5B-RET, and KIF5B-RET (V804M)) are introduced into Ba/F3 cells, and Ba/F3 (naive) is a cell which is not transduced.

[2] = test system: Ba/F3 KIF5B-RET (V804M) cells; assay: Cell proliferation inhibition, CellTiter-Glo; assay type: cell-based; conditions: Mus musculus, BaF3, 72 hours
Procedure: as §1, §2

[3] = test system: Ba/F3 KIF5B-RET (WT) cells; assay: Cell proliferation inhibition, CellTiter-Glo; assay type: cell-based; conditions: Mus musculus, BaF3, 72 hours
Procedure: as §1, §2

[4] = test system: Ba/F3 (naive) cells; assay: Cell proliferation inhibition, CellTiter-Glo; assay type: cell-based; conditions: Mus musculus, BaF3; Ba/F3 not transduced, 72 hours
Procedure: as §1, §2

[5] = target: T1, RET (WT) (Homo sapiens, UniProt P07949); assay: RET enzyme inhibitory ability, ADP-Glo kinase assay; assay type: biochemical; conditions: ATP 10 μM, 25° C., 1 hour
T1 construct: human RET (658-end, SIGNALCHEM); purchased SIGNALCHEM
T1 sequence (P07949 658-1114 limits assumed): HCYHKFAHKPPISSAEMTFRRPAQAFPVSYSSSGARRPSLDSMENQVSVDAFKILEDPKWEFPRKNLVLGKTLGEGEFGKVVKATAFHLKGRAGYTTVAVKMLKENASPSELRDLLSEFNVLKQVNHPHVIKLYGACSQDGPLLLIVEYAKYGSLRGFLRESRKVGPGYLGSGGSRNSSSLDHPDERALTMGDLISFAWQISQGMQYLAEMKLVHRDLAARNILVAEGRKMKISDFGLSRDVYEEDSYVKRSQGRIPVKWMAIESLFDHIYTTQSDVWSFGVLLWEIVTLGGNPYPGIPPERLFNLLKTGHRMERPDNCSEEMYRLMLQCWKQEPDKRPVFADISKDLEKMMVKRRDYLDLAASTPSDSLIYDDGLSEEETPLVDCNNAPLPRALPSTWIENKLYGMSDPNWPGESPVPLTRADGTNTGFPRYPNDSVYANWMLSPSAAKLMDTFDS
Procedure: The Example compound was reacted with a purified human RET (658-end, SIGNALCHEM) enzyme to evaluate the enzyme inhibitory ability by the following method. As a reaction buffer, a composition of 40 mM Tris-HCl pH 7.4, 20 mM MgCl2, 0.5 mg/mL BSA, and 50 μM DTT was used, and all experimental materials were reacted on the reaction buffer. After the human RET (658-end, 0.8 ng) enzyme was reacted with purified ATP (10 μM) and a specific substrate solution at 25° C. for 1 hour during the experiment, the enzyme activity was confirmed using in vitro ADP-Glo™ kinase assay (Promega). Luminescence was measured by reacting the enzyme activity reaction solution, the ADP-Glo reaction solution, and the enzyme activity detection solution at a ratio of 2:2:1. The degree of inhibition of enzyme activity according to the treatment concentration of each compound was calculated based on the […] of the enzyme activity of a solvent control group in which a compound was not treated, and in this case, the concentration of each compound which suppresses the […] enzyme activity by 50% was determined as an IC50 (nM) value. The IC50 (nM) of each compound was determined by 3 datasets and obtained using Prism (version 7.01, GraphPad) software.
In the enzyme assay column, RET (WT) is a non-mutated form, RET (V804M) is a mutated form in which the V amino acid at position 804 of the RET is substituted with M, and CCDC6-RET is a form in which the RET (WT) gene and CCDC6 gene are fused.

| Structure (SMILES) | GI50 [1] | GI50 [2] | GI50 [3] | GI50 [4] | IC50 [5] |
| --- | --- | --- | --- | --- | --- |
| COc1cnc(CN2C3CC2CN(c2ccc(-c4nc(Nc5cc(C)[nH]n5)c5ccccc5n4)cn2)C3)cn1 [Example 17, 2-(6-(6-((5-methoxypyrazin-2-yl)methyl)-3,6-diazabicyclo [3.1.1]heptan-3-yl)pyridin-3-yl)-N-(5-methyl-1H-pyrazol-3-yl)quinazolin-4-amine] | 46 nM | 7 nM | 10 nM | 867 nM | 11 nM |
| Cc1cc(Nc2nc(-c3ccc(N4CC5CC(C4)N5Cc4ccc5ncccc5c4)nc3)nc3ccccc23)n[nH]1 [Example 18, N-(5-methyl-1H-pyrazol-3-yl)-2-(6-(6-(quinolin-6-ylmethyl)-3,6-diazabicyclo [3.1.1]heptan-3-yl)pyridin-3-yl)quinazolin-4-amine] | 67 nM | 25 nM | 28 nM | 4600 nM | 34 nM |
| Cc1csc(CN2C3CC2CN(c2ccc(-c4nc(Nc5cc(C)[nH]n5)c5ccccc5n4)cn2)C3)n1 [Example 19, N-(5-methyl-1H-pyrazol-3-yl)-2-(6-(6-((4-methylthiazol-2-yl)methyl)-3,6-diazabicyclo [3.1.1]heptan-3-yl)pyridin-3-yl)quinazolin-4-amine] | 120 nM | 28 nM | 29 nM | 1230 nM | 40 nM |
| Cc1cc(Nc2nc(-c3ccc(N4CC5CC(C4)N5Cc4ccc(N(C)C)nc4)nc3)nc3ccccc23)n[nH]1 [Example 20, 2-(6-(6-((6-(di-methylamino)py-ridin-3-yl)meth-yl)-3,6-diazabicyclo [3.1.1]heptan-3-yl)pyridin-3-yl)-N-(5-methyl-1H-pyrazol-3-yl)quinazolin-4-amine] | 44 nM | 6 nM | 11 nM | 2780 nM | 14 nM |
| Cc1cc(Nc2nc(-c3ccc(N4CC5CC(C4)N5Cc4ccc(F)cc4)nc3)nc3ccccc23)n[nH]1 [Example 22, 2-(6-(6-(4-fluorobenzyl)-3,6-diazabicyclo [3.1.1]heptan-3-yl)pyridin-3-yl)-N-(5-methyl-1H-pyrazol-3-yl)quinazolin-4-amine] | 55 nM | 6 nM | 20 nM | 1220 nM | 20 nM |
| Cc1cc(Nc2nc(-c3ccc(N4CC5CC(C4)N5Cc4ccc(F)nc4)nc3)nc3ccccc23)n[nH]1 [Example 23, 2-(6-(6-((6-fluoropyridin-3-yl)methyl)-3,6-diazabicyclo [3.1.1]heptan-3-yl)pyridin-3-yl)-N-(5-methyl-1H-pyrazol-3-yl)quinazolin-4-amine] | 57 nM | 19 nM | 14 nM | 1300 nM | 15 nM |
| CCOc1ccc(CN2C3CC2CN(c2ccc(-c4nc(Nc5cc(C)[nH]n5)c5ccccc5n4)cn2)C3)cn1 [Example 24, 2-(6-(6-((6-ethoxypyridin-3-yl)methyl)-3,6-diazabicyclo [3.1.1]heptan-3-yl)pyridin-3-yl)-N-(5-methyl-1H-pyrazol-3-yl)quinazolin-4-amine] | 53 nM | 10 nM | 12 nM | 4320 nM | 14 nM |
| Cc1ncc(CN2C3CC2CN(c2ccc(-c4nc(Nc5cc(C)[nH]n5)c5ccccc5n4)cn2)C3)cn1 [Example 25, N-(5-methyl-1H-pyrazol-3-yl)-2-(6-(6-((2-methylpyrimidin-5-yl)methyl)-3,6-diazabicyclo [3.1.1]heptan-3-yl)pyridin-3-yl)quinazolin-4-amine] | 50 nM | 21 nM | 14 nM | 1650 nM | 7 nM |
| Cc1cnc(CN2C3CC2CN(c2ccc(-c4nc(Nc5cc(C)[nH]n5)c5ccccc5n4)cn2)C3)cn1 [Example 26, N-(5-methyl-1H-pyrazol-3-yl)-2-(6-(6-((5-methylpyrazin-2-yl)methyl)-3,6-diazabicyclo [3.1.1]heptan-3-yl)pyridin-3-yl)quinazolin-4-amine] | 37 nM | 10 nM | 10 nM | 973 nM | 7 nM |
| COc1ccc(CN2CCN(c3ccc(-c4nc(Nc5cc(C)[nH]n5)c5ccccc5n4)cn3)CC2(C)C)cn1 [Example 29, 2-(6-(4-((6-meth-oxypyridin-3-yl)methyl)-3,3-dimethyl-piperazin-1-yl)pyridin-3-yl)-N-(5-methyl-1H-pyrazol-3-yl)quinazolin-4-amine] | 454 nM | 89 nM | 164 nM | 6320 nM | 123 nM |
| COc1ccc(CN2CCCN(c3ccc(-c4nc(Nc5cc(C)[nH]n5)c5ccccc5n4)cn3)CC2)cn1 [Example 30, 2-(6-(4-((6-methoxypyridin-3-yl)methyl)-1,4-diazepan-1-yl)pyridin-3-yl)-N-(5-methyl-1H-pyrazol-3-yl)quinazolin-4-amine] | 99 nM | 25 nM | 44 nM | 1130 nM | 34 nM |
| COc1ccc(CN2C[C@@H]3C[C@H]2CN3c2ccc(-c3nc(Nc4cc(C)[nH]n4)c4ccccc4n3)cn2)cn1 [Example 31, 2-(6-((1S,4S)-5-((6-methoxy-pyridin-3-yl)methyl)-2,5-diazabicyclo [2.2.1]heptan-2-yl)pyridin-3-yl)-N-(5-methyl-1H-pyrazol-3-yl)quinazolin-4-amine] | 66 nM | 12 nM | 18 nM | 1680 nM | 25 nM |
| COc1ccc(CN2C[C@H]3C[C@@H]2CN3c2ccc(-c3nc(Nc4cc(C)[nH]n4)c4ccccc4n3)cn2)cn1 [Example 34, 2-(6-((1R,4R)-5-((6-methoxy-pyridin-3-yl)methyl)-2,5-diazabicyclo [2.2.1]heptan-2-yl)pyridin-3-yl)-N-(5-methyl-1H-pyrazol-3-yl)quinazolin-4-amine] | 65 nM | 20 nM | 19 nM | 2590 nM | 16 nM |
| COc1ccc(CN2CCN(c3ccc(-c4nc(Nc5cc(C)[nH]n5)c5ccccc5n4)cn3)C[C@H]2C)cn1 [Example 36, (R)-2-(6-(4-((6-methoxypyridin-3-yl)methyl)-3-methylpiperazin-1-yl)pyridin-3-yl)-N-(5-methyl-1H-pyrazol-3-yl)quinazolin-4-amine] | 259 nM | 32 nM | 63 nM | 4800 nM | 59 nM |
| COc1ccc(CN2CCN(c3ccc(-c4nc(Nc5cc(C)[nH]n5)c5ccccc5n4)cn3)CC23CC3)cn1 [Example 37, 2-(6-(4-((6-methoxypyridin-3-yl)methyl)-4,7-diazaspiro[2.5]oc-tan-7-yl)pyridin-3-yl)-N-(5-meth-yl-1H-pyrazol-3-yl)quinazolin-4-amine] | 305 nM | 50 nM | 107 nM | 4650 nM | 219 nM |

From patent US12281121B2, “N-containing heteroaryl derivative and pharmaceutical composition comprising same as active ingredient for prevention or treatment of cancer” (VORONOI Inc., priority 2019, dated 2025)
